From PubChem BioAssay (NCI)
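Test compounds were applied to cells in 96-well plates for 48 hours at 5 doses. GI50 = concentration required for 50% inhibition of growth. TGI is the concentration that stops growth completely.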

Experiments:
Assay in all cases: NCI anticancer screen, dose series, 48 h; in the data active = GI50 below about 0.43 µM; inactive = the rest
M14 melanoma = test system: M14 melanoma
MOLT-4 leukemia = test system: MOLT-4 leukemia
MALME-3M melanoma = test system: MALME-3M melanoma
786-0 renal = test system: 786-0 renal
SF-268 CNS = test system: SF-268 CNS
SF-539 CNS = test system: SF-539 CNS
CAKI-1 renal = test system: CAKI-1 renal
PC-3 prostate = test system: PC-3 prostate
NCI/ADR-RES ovarian = test system: NCI/ADR-RES ovarian
MDA-MB-231 breast = test system: MDA-MB-231 breast

[N-]=[N+]=CC(=O)C1(C(=O)C=[N+]=[N-])CC1
> 100 µM: TGI (M14 melanoma) | TGI (MOLT-4 leukemia) | TGI (MALME-3M melanoma) | TGI (786-0 renal) | TGI (SF-268 CNS) | TGI (SF-539 CNS)

Cc1c(C)c2c(c(C)c1OC(=O)CCC(=O)[O-])CCC(C)(CCCCCCCCCCC[P+](c1ccccc1)(c1ccccc1)c1ccccc1)O2 (stereo not given)
0.721 µM: TGI (SF-539 CNS)
22 µM: TGI (NCI/ADR-RES ovarian)
active: GI50 (PC-3 prostate) 0.158 µM | GI50 (SF-539 CNS) 0.185 µM
0.706 µM: TGI (PC-3 prostate)
4.7 µM: TGI (MOLT-4 leukemia)
inactive: GI50 (MOLT-4 leukemia) 0.456 µM | GI50 (CAKI-1 renal) 0.451 µM | GI50 (NCI/ADR-RES ovarian) 5.62 µM
1.34 µM: TGI (CAKI-1 renal)

CCCCn1c(-c2ccccc2)cs/c1=N\N=C1C=C(C(C)(C)C)C(=O)C(C(C)(C)C)=C1
> 100 µM: TGI (M14 melanoma) | TGI (MOLT-4 leukemia) | TGI (CAKI-1 renal) | TGI (MALME-3M melanoma) | TGI (786-0 renal) | TGI (SF-268 CNS) | TGI (SF-539 CNS)

O=c1oc2cc(O)ccc2c2[nH]c3cc(O)ccc3c12
49.9 µM: TGI (SF-539 CNS)
> 100 µM: TGI (M14 melanoma) | TGI (MOLT-4 leukemia) | TGI (MALME-3M melanoma) | TGI (786-0 renal)
64.8 µM: TGI (SF-268 CNS)

CC1CC(=O)Nc2ccc(Cl)cc2N1C(=O)CN1CCC(CCCCN(C)C)CC1 (stereo not given)
> 100 µM: TGI (M14 melanoma) | TGI (MOLT-4 leukemia) | TGI (CAKI-1 renal) | TGI (MALME-3M melanoma) | TGI (786-0 renal) | TGI (SF-268 CNS)

Oc1ccc(-c2c3ccccc3c(-c3ccc(O)cc3)c3ccccc23)cc1
> 100 µM: TGI (M14 melanoma) | TGI (MOLT-4 leukemia) | TGI (CAKI-1 renal) | TGI (MALME-3M melanoma) | TGI (786-0 renal) | TGI (SF-268 CNS) | TGI (SF-539 CNS)

COC1(OC)CC2C(=O)N(Cc3ccccc3)C1C(S(=O)(=O)c1ccccc1)C2C(C)S(=O)(=O)c1ccccc1 (stereo not given)
> 100 µM: TGI (M14 melanoma) | TGI (MOLT-4 leukemia) | TGI (CAKI-1 renal) | TGI (MALME-3M melanoma) | TGI (786-0 renal) | TGI (SF-268 CNS) | TGI (SF-539 CNS)

Cc1ccc2nc(N)[nH]c(=O)c2c1Sc1ccncc1
> 100 µM: TGI (M14 melanoma) | TGI (MOLT-4 leukemia) | TGI (CAKI-1 renal) | TGI (MALME-3M melanoma) | TGI (786-0 renal) | TGI (SF-268 CNS) | TGI (SF-539 CNS)

CCOC(=O)/C=C/n1c2ccccc2c(=O)c2cc(OC)ccc21
> 100 µM: TGI (M14 melanoma) | TGI (MOLT-4 leukemia) | TGI (CAKI-1 renal) | TGI (MALME-3M melanoma) | TGI (786-0 renal) | TGI (SF-268 CNS) | TGI (SF-539 CNS)

CCN(CC)CC1CCCCN1CC(=O)N1c2cc(Cl)ccc2NC(=O)CC1C (stereo not given)
> 100 µM: TGI (M14 melanoma) | TGI (MOLT-4 leukemia) | TGI (CAKI-1 renal) | TGI (MALME-3M melanoma) | TGI (786-0 renal) | TGI (SF-268 CNS) | TGI (SF-539 CNS)

CC1(CO)C(O)CCC2(C)C1CCC1CC3CC12CCC3(O)CO (stereo not given)
> 100 µM: TGI (MOLT-4 leukemia) | TGI (CAKI-1 renal) | TGI (MALME-3M melanoma) | TGI (SF-268 CNS) | TGI (NCI/ADR-RES ovarian)
> 44.5 µM: TGI (SF-539 CNS)

c1ccc2c(c1)nnn2CNc1ccc(N2CCCCC2)cc1
> 100 µM: TGI (M14 melanoma) | TGI (MOLT-4 leukemia) | TGI (MALME-3M melanoma) | TGI (786-0 renal) | TGI (SF-268 CNS) | TGI (SF-539 CNS)

CC(=O)Nc1ccc(-c2nnc(SCC(=O)Nc3cccc(C)c3)o2)cc1
27.2 µM: TGI (MALME-3M melanoma)
25.6 µM: TGI (M14 melanoma)
27.8 µM: TGI (SF-539 CNS)
26.4 µM: TGI (786-0 renal)
30.4 µM: TGI (CAKI-1 renal)
> 100 µM: TGI (MOLT-4 leukemia) | TGI (SF-268 CNS)

O=C1c2ccccc2N=C(c2cc3c(cc2Cl)Sc2nccn2S3(=O)=O)OS(=O)(=O)N1c1ccccc1
47.5 µM: TGI (M14 melanoma)
56.2 µM: TGI (MDA-MB-231 breast)
> 100 µM: TGI (CAKI-1 renal) | TGI (MALME-3M melanoma) | TGI (786-0 renal) | TGI (SF-268 CNS) | TGI (PC-3 prostate) | TGI (SF-539 CNS)
32.8 µM: TGI (MOLT-4 leukemia)

Cc1ccc(S(=O)(=O)NC(=O)C2S(=O)(=O)OCCOS2(=O)=O)cc1
> 100 µM: TGI (M14 melanoma) | TGI (CAKI-1 renal) | TGI (MALME-3M melanoma) | TGI (786-0 renal) | TGI (SF-268 CNS) | TGI (SF-539 CNS)

O=C([CH-]C(=O)c1ccccc1)c1ccccc1.[C-]#[O+].[C-]#[O+].[Ir]
> 100 µM: TGI (M14 melanoma) | TGI (MOLT-4 leukemia) | TGI (CAKI-1 renal) | TGI (MALME-3M melanoma) | TGI (SF-539 CNS)
inactive: GI50 (M14 melanoma) 54.3 µM | GI50 (MOLT-4 leukemia) 56.7 µM | GI50 (CAKI-1 renal) 79.1 µM | GI50 (MALME-3M melanoma) > 100 µM | GI50 (SF-539 CNS) 99.4 µM

O=C(Nc1ccccc1[N+](=O)[O-])/C(=N/Nc1cccc(Cl)c1)c1c(O)c2ccccc2oc1=O
> 100 µM: TGI (M14 melanoma) | TGI (MOLT-4 leukemia) | TGI (CAKI-1 renal) | TGI (MALME-3M melanoma) | TGI (786-0 renal) | TGI (SF-268 CNS) | TGI (SF-539 CNS)

CCOC(=O)/C(Br)=C1\OC(=O)c2ccccc2-c2ccccc21
> 100 µM: TGI (M14 melanoma) | TGI (CAKI-1 renal) | TGI (MALME-3M melanoma) | TGI (786-0 renal) | TGI (SF-268 CNS)
65.5 µM: TGI (MOLT-4 leukemia)
73.1 µM: TGI (SF-539 CNS)

Cc1cc(N(CCC#N)S(=O)(=O)c2ccccc2)ccc1C=Nc1cccc(C(=O)O)c1
> 100 µM: TGI (M14 melanoma) | TGI (MOLT-4 leukemia) | TGI (CAKI-1 renal) | TGI (MALME-3M melanoma) | TGI (SF-268 CNS) | TGI (SF-539 CNS)

COc1ccc(C=Nc2ccc(-c3nc4ccccc4s3)cc2)cc1OC
69.9 µM: TGI (PC-3 prostate)
89.2 µM: TGI (MALME-3M melanoma)
44.3 µM: TGI (786-0 renal)
84.4 µM: TGI (MOLT-4 leukemia)
89.8 µM: TGI (NCI/ADR-RES ovarian)
> 100 µM: TGI (M14 melanoma) | TGI (CAKI-1 renal) | TGI (SF-268 CNS) | TGI (SF-539 CNS)

CC(C)OP(=O)(OC(C)C)C(=NCCO)NNc1ccc([N+](=O)[O-])cc1
> 100 µM: TGI (M14 melanoma) | TGI (MOLT-4 leukemia) | TGI (CAKI-1 renal) | TGI (MALME-3M melanoma) | TGI (786-0 renal) | TGI (SF-268 CNS) | TGI (SF-539 CNS)
